Measured values from PubChem BioAssay AID330 (DTP/NCI, 2004).
“And” between values parts separate entries of the source, which are not always exact repeats. Equal values may be shown once. Toxic doses and inconclusive results are not listed. Rule for the calls: active = survival T/C of 150% or more; inactive = T/C below 125% in these data. Numbered stars: 1 amine (or outer) side, 2 acyl side, 3 side chain; on linkers, the order of the positions; unused ones are H or OH. Square brackets hold non-standard residues; d marks the D form. Peptide text beside a SMILES is read from it. X21 = O=C(C1=CN(Cc2ccccc2)C=CC1N[*:1])[*:2]

Test system: P388 leukemia ip, CD2F1 mice, survival T/C
Assay: NCI In Vivo Anticancer Drug Screen. Data for tumor model P388 Leukemia (intraperitoneal) in CD2F1 (CDF1) mice
Details: endpoint: median survival time, higher = longer survival
Method in brief: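 Mice carrying the transplanted tumor received test compound or vehicle. Survival was recorded in each group, and the value is the treated-group measurement divided by that of the vehicle-treated control group.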

[1] = dose: 60.0 mg/kg/injection, schedule: Q01DX005 (ip), vehicle: saline with Tween-80
[2] = dose: 120.0 mg/kg/injection, schedule: Q01DX005 (ip), vehicle: saline with Tween-80
[3] = dose: 240.0 mg/kg/injection, schedule: Q01DX005 (ip), vehicle: saline with Tween-80
[4] = dose: 50.0 mg/kg/injection, schedule: Q01DX009 (ip), vehicle: saline with Tween-80
[5] = dose: 100.0 mg/kg/injection, schedule: Q01DX009 (ip), vehicle: saline with Tween-80
[6] = dose: 200.0 mg/kg/injection, schedule: Q01DX009 (ip), vehicle: saline with Tween-80
[7] = dose: 25.0 mg/kg/injection, schedule: Q01DX009 (ip), vehicle: saline with Tween-80
[8] = dose: 12.5 mg/kg/injection, schedule: Q01DX009 (ip), vehicle: saline with Tween-80
[9] = dose: 50.0 mg/kg/injection, schedule: Q01DX005 (ip), vehicle: saline with Tween-80
[10] = dose: 100.0 mg/kg/injection, schedule: Q01DX005 (ip), vehicle: saline with Tween-80
[11] = dose: 200.0 mg/kg/injection, schedule: Q01DX005 (ip), vehicle: saline with Tween-80
[12] = dose: 50.0 mg/kg/injection, schedule: Q01DX005 (ip), vehicle: Klucel (hydroxypropylcellulose) (HPC)
[13] = dose: 100.0 mg/kg/injection, schedule: Q01DX005 (ip), vehicle: Klucel (hydroxypropylcellulose) (HPC)
[14] = dose: 200.0 mg/kg/injection, schedule: Q01DX005 (ip), vehicle: Klucel (hydroxypropylcellulose) (HPC)
[15] = dose: 400.0 mg/kg/injection, schedule: Q01DX009 (ip), vehicle: saline with Tween-80

Measured: T/C

O=C1CSC(c2cccnc2)N1CCN1C(=O)CSC1c1cccnc1 (stereo not drawn)
inactive: [1] 105 % of control | dose: 100.0 mg/kg/injection, schedule: Q04DX002 (ip), vehicle: saline with Tween-80 112 % of control | [2] 105 % of control | dose: 200.0 mg/kg/injection, schedule: Q04DX002 (ip), vehicle: saline with Tween-80 112 % of control | [3] 101 % of control | dose: 400.0 mg/kg/injection, schedule: Q04DX002 (ip), vehicle: saline with Tween-80 109 % of control

COC1=NC2(C)C(C)=C(c3ccccc3)C1(C)c1ccccc12 (stereo not drawn)
inactive: [1] 100 % of control | [2] 98 % of control | [3] 99 % of control

CCOC(=O)C(C(=O)OCC)=C1c2c(ccc(OC)c2OC)C=C2c3cc4c(cc3CCN21)OCO4
inactive: dose: 0.63 mg/kg/injection, schedule: Q01DX009 (ip), vehicle: water 97 % of control | dose: 1.25 mg/kg/injection, schedule: Q01DX009 (ip), vehicle: water 100 % of control | dose: 2.5 mg/kg/injection, schedule: Q01DX009 (ip), vehicle: water 106 % of control | dose: 5.0 mg/kg/injection, schedule: Q01DX009 (ip), vehicle: water 117 % of control | dose: 10.0 mg/kg/injection, schedule: Q01DX009 (ip), vehicle: water 124 % of control

CC1NC(=O)C(C(C)C)NC(=O)C2=CN(Cc3ccccc3)C=CC2NC(=O)C(C)NC(=O)C(C(C)C)NC(=O)C2=CN(Cc3ccccc3)C=CC2NC1=O (stereo not drawn) (cyclo([X21]VA[X21]VA); configuration not given here)
inactive: [1] 94 % of control | [2] 93 % of control

COc1ccc2c(c1)CSC(c1ccccc1)C2O (stereo not drawn)
inactive: [4] 98 % of control | [5] 93 % of control | [6] 99 % of control

O=P(O)(O)c1ccccc1P(=O)(O)O
inactive: dose: 60.0 mg/kg/injection, schedule: Q01DX005 (ip), vehicle: saline 105 % of control | dose: 120.0 mg/kg/injection, schedule: Q01DX005 (ip), vehicle: saline 93 % of control

O=C(NC1CCCCC1)Oc1ccccc1-c1ccccc1
inactive: dose: 100.0 mg/kg/injection, schedule: Q01DX001 (ip), vehicle: saline with Tween-80 100 % of control | dose: 200.0 mg/kg/injection, schedule: Q01DX001 (ip), vehicle: saline with Tween-80 100 % of control | dose: 400.0 mg/kg/injection, schedule: Q01DX001 (ip), vehicle: saline with Tween-80 100 % of control

Cc1ccccc1-c1nc2cc(Cl)ccc2c(=O)o1
inactive: [7] 105 % of control | [4] 110 % of control | [5] 110 % of control

O=C(O)/C=C/C(=O)N1Cc2cc3ccccc3nc2C1
inactive: dose: 1.56 mg/kg/injection, schedule: Q01DX009 (ip), vehicle: saline with Tween-80 100 % of control and 101 % of control and 104 % of control | dose: 3.13 mg/kg/injection, schedule: Q01DX009 (ip), vehicle: saline with Tween-80 99 % of control and 103 % of control and 117 % of control | dose: 6.25 mg/kg/injection, schedule: Q01DX009 (ip), vehicle: saline with Tween-80 101 % of control and 94 % of control | dose: 8.0 mg/kg/injection, schedule: Q01DX009 (ip), vehicle: saline with Tween-80 91 % of control | [8] 98 % of control and 99 % of control and 107 % of control | dose: 16.0 mg/kg/injection, schedule: Q01DX009 (ip), vehicle: saline with Tween-80 94 % of control | dose: 32.0 mg/kg/injection, schedule: Q01DX009 (ip), vehicle: saline with Tween-80 99 % of control | dose: 64.0 mg/kg/injection, schedule: Q01DX009 (ip), vehicle: saline with Tween-80 94 % of control

O=C1c2ccccc2C(=O)c2c(O)c(NCCCNCCO)cc(O)c21
inactive: dose: 2.5 mg/kg/injection, schedule: Q01DX009 (ip), vehicle: acid diluted with saline 103 % of control | dose: 5.0 mg/kg/injection, schedule: Q01DX009 (ip), vehicle: acid diluted with saline 108 % of control | dose: 10.0 mg/kg/injection, schedule: Q01DX009 (ip), vehicle: acid diluted with saline 103 % of control | dose: 20.0 mg/kg/injection, schedule: Q01DX009 (ip), vehicle: acid diluted with saline 112 % of control | dose: 40.0 mg/kg/injection, schedule: Q01DX009 (ip), vehicle: acid diluted with saline 111 % of control | dose: 80.0 mg/kg/injection, schedule: Q01DX009 (ip), vehicle: acid diluted with saline 100 % of control

CCOc1ccc(NC(=O)/C(=C\c2ccc(C)cc2)C(C)=O)cc1
inactive: [9] 106 % of control | [10] 110 % of control | [11] 104 % of control

Cc1ccc(S(=O)(=O)OC(C)c2[nH]c(=O)n(C3CCCO3)c(=O)c2F)cc1 (stereo not drawn)
inactive: [9] 99 % of control | [10] 91 % of control | [11] 93 % of control

Nc1nc(C2CCCC2)cc(=O)[nH]1
inactive: [12] 108 % of control | [13] 105 % of control | [14] 97 % of control

Clc1ccc(Oc2ccc(N3C=Nc4ccc(Oc5ccc(Cl)cc5)cc4C3)cc2)cc1
inactive: [5] 110 % of control | [6] 100 % of control | [15] 115 % of control

O=C(C(c1ccccc1)c1ccccc1)N1CCCCC1c1ccccc1 (stereo not drawn)
inactive: [9] 102 % of control | [10] 92 % of control | [11] 97 % of control

COC(=O)/C(=C1/OC(=O)C(c2ccccc2)=C1O)c1ccccc1
inactive: dose: 6.25 mg/kg/injection, schedule: Q01DX009 (ip), vehicle: Klucel (hydroxypropylcellulose) (HPC) 99 % of control | dose: 12.5 mg/kg/injection, schedule: Q01DX009 (ip), vehicle: Klucel (hydroxypropylcellulose) (HPC) 94 % of control | dose: 25.0 mg/kg/injection, schedule: Q01DX009 (ip), vehicle: Klucel (hydroxypropylcellulose) (HPC) 99 % of control | dose: 50.0 mg/kg/injection, schedule: Q01DX009 (ip), vehicle: Klucel (hydroxypropylcellulose) (HPC) 93 % of control | dose: 50.0 mg/kg/injection, schedule: Q01DX009 (ip), vehicle: saline 95 % of control

COc1cc(Br)cc(C=O)c1OC
inactive: dose: 12.5 mg/kg/injection, schedule: Q01DX009 (ip), vehicle: other 98 % of control | dose: 25.0 mg/kg/injection, schedule: Q01DX009 (ip), vehicle: other 98 % of control | dose: 50.0 mg/kg/injection, schedule: Q01DX009 (ip), vehicle: other 99 % of control | dose: 100.0 mg/kg/injection, schedule: Q01DX009 (ip), vehicle: other 98 % of control | dose: 200.0 mg/kg/injection, schedule: Q01DX009 (ip), vehicle: other 102 % of control | dose: 400.0 mg/kg/injection, schedule: Q01DX009 (ip), vehicle: other 114 % of control

O=C(O)CNC(=O)OCC1c2ccccc2-c2ccccc21
inactive: [12] 100 % of control | [13] 95 % of control | [14] 100 % of control

Cn1nc(-c2ccccc2)c([N+](=O)[O-])c1NCc1ccccc1
inactive: [12] 97 % of control | [13] 100 % of control | [14] 97 % of control

COc1cc(CCN(C)C)c([N+](=O)[O-])cc1OC
inactive: dose: 12.5 mg/kg/injection, schedule: Q01DX009 (ip), vehicle: saline 90 % of control | dose: 25.0 mg/kg/injection, schedule: Q01DX009 (ip), vehicle: saline 89 % of control

C1=C(c2ccccc2)Oc2ccccc2[P+]1(c1ccccc1)c1ccccc1
inactive: dose: 0.78 mg/kg/injection, schedule: Q01DX005 (ip), vehicle: Klucel (hydroxypropylcellulose) (HPC) 100 % of control | dose: 1.56 mg/kg/injection, schedule: Q01DX005 (ip), vehicle: Klucel (hydroxypropylcellulose) (HPC) 109 % of control | dose: 3.12 mg/kg/injection, schedule: Q01DX005 (ip), vehicle: Klucel (hydroxypropylcellulose) (HPC) 99 % of control

C[N+](C)(CC(=O)Nc1ccc(Cl)c(Cl)c1)CC(=O)c1ccc(Cl)c(Cl)c1
inactive: dose: 25.0 mg/kg/injection, schedule: Q04DX003 (ip), vehicle: saline with Tween-80 100 % of control | dose: 50.0 mg/kg/injection, schedule: Q04DX003 (ip), vehicle: saline with Tween-80 100 % of control | dose: 100.0 mg/kg/injection, schedule: Q04DX003 (ip), vehicle: saline with Tween-80 90 % of control

O=C([Se][Se]C(=O)c1ccc(Cl)cc1)c1ccc(Cl)cc1
inactive: [8] 99 % of control | [7] 100 % of control | [4] 100 % of control | [5] 98 % of control

Cc1cc(N=Nc2ccccc2)cc(C)c1N
inactive: [5] 90 % of control | [6] 90 % of control | [15] 100 % of control
